Measurements published in patent US20260355196A1, “INHIBITORS AND DEGRADERS OF PIP4K PROTEIN” (Larkspur Biosciences, Inc., priority 2023, published 2026).

Target: T1, PIP4K2C (Homo sapiens, UniProt Q8TBX8)
T1 sequence (Q8TBX8 1-421): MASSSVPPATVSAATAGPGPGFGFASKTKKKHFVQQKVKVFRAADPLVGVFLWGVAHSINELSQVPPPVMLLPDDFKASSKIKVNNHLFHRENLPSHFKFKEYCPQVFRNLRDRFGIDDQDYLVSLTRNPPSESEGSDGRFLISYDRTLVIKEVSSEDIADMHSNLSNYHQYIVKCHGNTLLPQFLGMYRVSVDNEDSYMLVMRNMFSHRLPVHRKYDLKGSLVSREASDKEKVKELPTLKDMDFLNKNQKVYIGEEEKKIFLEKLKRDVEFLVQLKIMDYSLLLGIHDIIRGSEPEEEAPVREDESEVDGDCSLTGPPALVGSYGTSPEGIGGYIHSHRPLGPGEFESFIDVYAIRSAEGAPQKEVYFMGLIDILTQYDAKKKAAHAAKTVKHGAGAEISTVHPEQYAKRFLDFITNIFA
Test: HiBiT PIP4K2C degradation assay in MOLT-4 cells (endogenous PIP4K2C C-terminally tagged with HiBiT)
Type: cell-based
Parameters: untagged in primary human PBMCs and monocyte-derived dendritic cells
Details: 24 hours incubation, MOLT-4, top concentration 10 micromolar; read-out: HiBIT-degradation MOLT4 PIP4k2C 24 hours DC50
How it was run: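 Cells are plated onto compound dilutions (10 points, 3-fold, top 10 micromolar) and incubated 24 or 6 hours at 37 C. Lytic HiBiT detection then quantifies tagged endogenous PIP4K2C in MOLT-4, and a Hill fit yields DC50.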

| DC50 [nM] | Structure (SMILES) |
| --- | --- |
| < 500 | O=C1CCC(n2c(=O)oc3c(C4CCN(C(=O)CN5CCC(C(=O)N6CCC(Nc7ncc(Cl)c(-c8cccc(-c9ccc(F)cc9)c8)n7)CC6)CC5)CC4)cccc32)C(=O)N1 (centres unmarked) [Compound 293, 3-(7-(1-(2-(4-(4-((5-chloro-4-(4′-fluoro-[1,1′-biphenyl]-3-yl)pyrimidin-2-yl)amino)piperidine-1-carbonyl)piperidin-1-yl)acetyl)piperidin-4-yl)-2-oxobenzo[d]oxazol-3 (2H)-yl)piperidine-2,6-dione] |
| < 500 | O=C1CCC(n2c(=O)oc3cc(C4CCN(CC5CCN(CC(=O)N6CCC(Nc7ncc(Cl)c(-c8cccc(-c9ccc(F)cc9)c8)n7)CC6)CC5)CC4)ccc32)C(=O)N1 (centres unmarked) [Compound 294, 3-(6-(1-((1-(2-(4-((5-chloro-4-(4′-fluoro-[1,1′-biphenyl]-3-yl)pyrimidin-2-yl)amino)piperidin-1-yl)-2-oxoethyl)piperidin-4-yl)methyl)piperidin-4-yl)-2-oxobenzo[d]oxazol-3 (2H)-yl)piperidine-2,6-dione] |
| < 500 | O=C1CCC(N2Cc3c(OC4CCN(C5CCCN(CC(=O)N6CCC(Nc7ncc(Cl)c(-c8cccc(-c9ccc(F)cc9)c8)n7)CC6)C5)CC4)cccc3C2=O)C(=O)N1 (centres unmarked) [Compound 296, 3-(4-((1′-(2-(4-((5-chloro-4-(4′-fluoro-[1,1′-biphenyl]-3-yl)pyrimidin-2-yl)amino)piperidin-1-yl)-2-oxoethyl)-[1,3′-bipiperidin]-4-yl)oxy)-1-oxoisoindolin-2-yl)piperidine-2,6-dione] |
| < 500 | Cn1c(=O)n(C2CCC(=O)NC2=O)c2ccc(C3CCN(C4CCN(CCC(=O)N5CCC(Nc6ncc(Cl)c(-c7cccc(-c8ccc(F)cc8)c7)n6)CC5)CC4)CC3)cc21 (centres unmarked) [Compound 300, 3-(5-(1′-(3-(4-((5-chloro-4-(4′-fluoro-[1,1′-biphenyl]-3-yl)pyrimidin-2-yl)amino)piperidin-1-yl)-3-oxopropyl)-[1,4′-bipiperidin]-4-yl)-3-methyl-2-oxo-2,3-dihydro-1H-benzo[d]imidazol-1-yl)piperidine-2,6-dione] |
| < 500 | Cn1c(=O)n(C2CCC(=O)NC2=O)c2ccc(C3CCN(CC4CCN(CC(=O)N[C@H]5CC[C@H](Nc6ncc(F)c(-c7cccc(-n8ccccc8=O)c7)n6)CC5)CC4)CC3)cc21 (stereo partly drawn) [Compound 301, trans-2-(4-((4-(1-(2,6-dioxopiperidin-3-yl)-3-methyl-2-oxo-2,3-dihydro-1H-benzo[d]imidazol-5-yl)piperidin-1-yl)methyl)piperidin-1-yl)-N-(4-((5-fluoro-4-(3-(2-oxopyridin-1(2H)-yl)phenyl)pyrimidin-2-yl)amino)cyclohexyl)acetamide] |
| < 500 | O=C1CCC(n2c(=O)oc3cc(C4CCN(CC5CCN(CC(=O)N6CCC(Nc7ncc(F)c(-c8cccc(-n9ccccc9=O)c8)n7)CC6)CC5)CC4)ccc32)C(=O)N1 (centres unmarked) [Compound 303, 3-(6-(1-((1-(2-(4-((5-fluoro-4-(3-(2-oxopyridin-1(2H)-yl)phenyl)pyrimidin-2-yl)amino)piperidin-1-yl)-2-oxoethyl)piperidin-4-yl)methyl)piperidin-4-yl)-2-oxobenzo[d]oxazol-3 (2H)-yl)piperidine-2,6-dione] |
| < 500 | Cn1nc(C2CCC(=O)NC2=O)c2ccc(C3CCN(CC4CCN(CC(=O)N[C@H]5CC[C@H](Nc6ncc(F)c(-c7cccc(-n8ccccc8=O)c7)n6)CC5)CC4)CC3)cc21 (stereo partly drawn) [Compound 304, trans-2-(4-((4-(3-(2,6-dioxopiperidin-3-yl)-1-methyl-1H-indazol-6-yl)piperidin-1-yl)methyl)piperidin-1-yl)-N-(4-((5-fluoro-4-(3-(2-oxopyridin-1(2H)-yl)phenyl)pyrimidin-2-yl)amino)cyclohexyl)acetamide] |
| < 500 | O=C1CCC(Nc2ccc(N3CCC(N4CCC(C(=O)N[C@H]5CC[C@H](Nc6ncc(F)c(-c7cccc(-n8ccccc8=O)c7)n6)CC5)CC4)CC3)c(F)c2)C(=O)N1 (stereo partly drawn) [Compound 305, trans-1′-(4-((2,6-dioxopiperidin-3-yl)amino)-2-fluorophenyl)-N-(4-((5-fluoro-4-(3-(2-oxopyridin-1(2H)-yl)phenyl)pyrimidin-2-yl)amino)cyclohexyl)-[1,4′-bipiperidine]-4-carboxamide] |
